PubChem BioAssay (NCI)
Values joined by “and” are separate entries in the source; they are usually repeats but may differ in a detail not shown here. Equal entries are not always repeated.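 Grown in 96-well plates, cells were treated for 48 hours with each compound at five concentrations. Insufficient inhibition: endpoint recorded as highest concentration tested. The concentration for 50% growth inhibition is given as GI50. TGI denotes the concentration required for complete inhibition of growth.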

Key:
Assay in all cases: inhibition of tumour cell growth, NCI panel, 48 h
OVCAR-5 ovarian = test system: OVCAR-5 ovarian
RXF 393 renal = test system: RXF 393 renal
MDA-MB-435 = test system: MDA-MB-435
SF-268 CNS = test system: SF-268 CNS
UACC-257 melanoma = test system: UACC-257 melanoma
786-0 renal = test system: 786-0 renal
NCI-H23 lung = test system: NCI-H23 lung
SK-MEL-5 melanoma = test system: SK-MEL-5 melanoma
DMS 114 small cell lung = test system: DMS 114 small cell lung
KM20L2 colon = test system: KM20L2 colon

| Structure (SMILES) | GI50 (OVCAR-5 ovarian) | TGI (OVCAR-5 ovarian) | GI50 (RXF 393 renal) | TGI (RXF 393 renal) | GI50 (MDA-MB-435) | TGI (MDA-MB-435) | GI50 (SF-268 CNS) | TGI (SF-268 CNS) | GI50 (UACC-257 melanoma) | TGI (UACC-257 melanoma) | GI50 (786-0 renal) | TGI (786-0 renal) | GI50 (NCI-H23 lung) | TGI (NCI-H23 lung) | GI50 (SK-MEL-5 melanoma) | TGI (SK-MEL-5 melanoma) | TGI (DMS 114 small cell lung) | TGI (KM20L2 colon) |
| --- | --- | --- | --- | --- | --- | --- | --- | --- | --- | --- | --- | --- | --- | --- | --- | --- | --- | --- |
| O=C(CSC(c1ccccc1)c1ccccc1)N/N=C/c1ccccc1Cl | 10.7 µM | > 73.2 µM | 10.2 µM | 55.9 µM | 49.6 µM | > 100 µM | 25.5 µM | 78.6 µM | 7.05 µM | 63.8 µM | 19.8 µM | 65.5 µM | 12.8 µM | 61.6 µM | 21 µM | 47.2 µM |  |  |
| O=C1NC2C3CC(OCc4ccccc4)(OCc4ccccc4)C2OC3O1 (stereo not drawn) |  | > 50 µM |  |  |  |  |  | > 50 µM |  | > 50 µM |  | > 50 µM |  | > 50 µM |  | > 50 µM | > 50 µM |  |
| O=C(NCc1ccco1)C1CCN(S(=O)(=O)c2ccc(Cl)cc2)CC1 | > 100 µM | > 100 µM | > 100 µM | > 100 µM | 35.4 µM | > 100 µM | > 100 µM | > 100 µM | > 100 µM | > 100 µM | > 100 µM | > 100 µM | > 100 µM | > 100 µM | 53.5 µM | > 100 µM |  |  |
| COC(=O)c1c2c(c(C)[n+]([O-])c1C)C(=O)C(NCc1ccc(F)cc1)=CC2=O | 1.8 µM | 3.59 µM | 1.56 µM | 3.51 µM | 0.582 µM | 1.84 µM | 2.51 µM | 9.08 µM | 0.845 µM | 2.44 µM | 2.85 µM | 30.1 µM | 1.33 µM | 3.79 µM | 0.3 µM | 1 µM |  |  |
| Oc1ccc(Cl)cc1Sc1cc(Cl)ccc1O | 3.12 µM | 34.3 µM and 12.7 µM | 4.88 µM | 31.1 µM and 17.1 µM | 2.79 µM | 23.9 µM and 9.08 µM | 3.51 µM | 31.9 µM and 13.4 µM | 2.83 µM | 19.3 µM and 6.91 µM | 11.9 µM | 33 µM and 25.2 µM | 2.23 µM | 24.2 µM and 7.33 µM | 1.92 µM | 15.7 µM and 4.06 µM |  |  |
| C=C1C(=O)O[C@H]2[C@H]1CC/C(COC(=O)CCCCCCCC(=O)OC/C1=C/CC[C@@]3(C)O[C@H]3[C@H]3OC(=O)C(=C)[C@@H]3CC1)=C\CC[C@@]1(C)O[C@@H]21 | 2.48 µM | 7.01 µM | 1.43 µM | 2.88 µM | 2.59 µM | 7.33 µM | 2.3 µM | 7.41 µM | 2.13 µM | 4.64 µM | 1.68 µM | 3.63 µM | 2.26 µM | 6.52 µM | 1.98 µM | 4.1 µM |  |  |
| C=C1C(=O)O[C@@H]2CC(CO)=C([C@@H](C)CCCO)[C@@H](OC(=O)/C(C)=C\C)[C@H]12 |  | > 56.9 µM |  | 37.7 µM |  | > 52.4 µM |  | 50.2 µM |  | 38.1 µM |  | 52.1 µM |  | 38.8 µM |  | 34.6 µM |  |  |
| COc1cc2c3cc1Oc1c(OC)c(OC)cc4c1[C@@H](Cc1ccc(O)c(c1)Oc1ccc(cc1)C[C@@H]3N(C)CC2)N(C)CC4 |  | > 100 µM |  | 25.9 µM |  |  |  | 45.6 µM |  | 10.9 µM |  | 25.6 µM |  | 61.3 µM |  | 11.8 µM |  | 21.1 µM |
